Reference: patent US4855316A (priority 1988, dated 1989)

What was measured:
[1] = target: T1, mu opioid receptor (Cavia porcellus, UniProt A0ACM8Q262); assay: mu opioid receptor binding: tritiated DAGO in guinea pig brain homogenates; conditions: read-out: Opoid Binding Mu Ki; guinea pig brain homogenate, [3H]DAGO, 150 minutes, 0° C.
T1 construct: full-length wild-type receptor

[2] = standard rat paw pressure analgesia test; type: in vivo; conditions: i.v.
Source text: The ED50 doses for several representative compounds of this invention in the standard rat paw pressure analgesia test are presented in Table 1.

T1 sequence (A0ACM8Q262 1-400): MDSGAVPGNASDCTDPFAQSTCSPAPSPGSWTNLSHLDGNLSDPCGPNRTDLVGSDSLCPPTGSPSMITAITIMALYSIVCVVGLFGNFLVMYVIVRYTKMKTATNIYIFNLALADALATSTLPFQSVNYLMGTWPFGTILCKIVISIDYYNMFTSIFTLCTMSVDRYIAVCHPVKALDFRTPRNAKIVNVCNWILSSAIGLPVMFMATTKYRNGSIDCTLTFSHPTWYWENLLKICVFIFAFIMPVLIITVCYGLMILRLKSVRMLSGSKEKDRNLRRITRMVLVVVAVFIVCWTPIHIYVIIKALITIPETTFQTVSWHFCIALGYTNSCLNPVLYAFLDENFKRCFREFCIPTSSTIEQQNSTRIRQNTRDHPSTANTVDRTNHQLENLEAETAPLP

| SMILES | Ki [1] [nM] | Rat Paw Pressure MPE50 [2] [mg·kg] |
| --- | --- | --- |
| CO[C@H]1C[C@@H](N2CCCC2)[C@H](N(C)C(=O)COc2cccc(F)c2)C[C@H]1OC (relative stereo) [Compound 9, N-[4,5-Dimethoxy-2-(1-pyrrolidinyl)cyclohexyl]-2-(3-fluorophenoxy)-N-methylacetamide] | 1100 |  |
| CO[C@H]1C[C@@H](N2CCCC2)[C@H](N(C)C(=O)CC2c3ccccc3-c3ccccc32)C[C@H]1OC (relative stereo) [Compound 7] | 273 |  |
| CO[C@H]1C[C@@H](N2CCCC2)[C@H](N(C)C(=O)COc2cc(C)c(Cl)c(C)c2)C[C@H]1OC (relative stereo) [Compound 3] | 720 | > 10 |
| CO[C@H]1C[C@@H](N2CCCC2)[C@H](N(C)C(=O)COc2ccc(Cl)c(Cl)c2)C[C@H]1OC (relative stereo) [Compound 4] | 1100 | > 10 |
| CO[C@H]1C[C@@H](N2CCCC2)[C@H](N(C)C(=O)Cc2cccc3ccccc23)C[C@H]1OC (relative stereo) [Compound 5] |  | 1.7 |
| CO[C@H]1C[C@@H](N2CCCC2)[C@H](N(C)C(=O)COc2cc(C)c(Cl)c(C)c2Cl)C[C@H]1OC (relative stereo) [Compound 8] | 700 |  |
| CO[C@H]1C[C@@H](N2CCCC2)[C@H](N(C)C(=O)Cc2ccc(Cl)c(Cl)c2)C[C@H]1OC (relative stereo) [Compound 6] |  | 5.2 |
